Where “and” joins values, the source holds several entries; their conditions need not be identical. Equal values may be shown once. Read-outs that look alike come from different tables or passages of the source. A value given as a limit tells only on which side of the number the result lay.

One data set has as its system HIV-1 (HE). Nature of the data set: Anti-HIV replication assay, HIV-1 (HE) in wild-type CEM/0 cells. As to conditions: for EC50: Human immunodeficiency virus 1, CCRF-CEM, wild-type CEM/0 cells, mean ± SD, n = 2–3, read-out: HIV-1 (HE) EC50. Type of data set: cell-based. As to the method:
Inhibition of HIV-1(HE)- and HIV-2(ROD)-induced cytopathogenicity in wild-type CEM/0 CEM CD4^+ T-cells and thymidine kinase-deficient CEM/TK^– cell cultures was measured in microtiter 96-well plates containing ∼3 × 10^5 CEM cells/mL infected with 100 CCID50 of HIV per milliliter and containing appropriate dilutions of the test compounds. After 4–5 days of incubation at 37 °C in a CO2-controlled humidified atmosphere, virus-induced cellular effects and syncytia cell formation were examined microscopically. The EC50 (50% effective concentration) was defined as the compound concentration required to inhibit HIV-induced giant cell formation by 50%.

In data set [1] the test system is HIV-2 (ROD). Nature of the data set: Anti-HIV replication assay, HIV-2 (ROD) in wild-type CEM/0 cells. Type of data set: cell-based. As to conditions: for selectivity index (SI): CC50/EC50, HIV-2 (ROD) in CEM cells; for EC50: Human immunodeficiency virus 2, CCRF-CEM, read-out: HIV-2 (ROD) EC50. The protocol:
(§1) Inhibition of HIV-1(HE)- and HIV-2(ROD)-induced cytopathogenicity in wild-type CEM/0 CEM CD4^+ T-cells and thymidine kinase-deficient CEM/TK^– cell cultures was measured in microtiter 96-well plates containing ∼3 × 10^5 CEM cells/mL infected with 100 CCID50 of HIV per milliliter and containing appropriate dilutions of the test compounds. After 4–5 days of incubation at 37 °C in a CO2-controlled humidified atmosphere, virus-induced cellular effects and syncytia cell formation were examined microscopically.

Data set [2] relates to HIV-2 (ROD). Nature of the data set: Anti-HIV replication assay, HIV-2 (ROD) in thymidine kinase-deficient CEM/TK– cells. The format is cell-based. As to conditions: for selectivity index (SI): CC50/EC50, HIV-2 (ROD) in CEM/TK– cells; for EC50: Human immunodeficiency virus 2, CEM/TK– cells, mean ± SD, n = 2–3, read-out: CEM/TK– HIV-2 (ROD) EC50. The protocol: as §1
A short description of data set [3]: Cytotoxicity, inhibition of CEM cell proliferation. Type of data set: cell-based. As to conditions: human, CEM cells (CD4+ T-cells), read-out: toxicity CC50.
A short description of data set [4]: Cytotoxicity, inhibition of CEM/TK– cell proliferation. As to conditions: human, CEM/TK– cells (CD4+ T-cells), read-out: toxicity CC50. The format is cell-based.
Data set [5] is described as follows: Chemical hydrolysis in aqueous buffers (PBS pH 7.3 / 8.0, citrate buffer pH 2.0), RP18-HPLC. The format is physicochemical. As to conditions: phosphate buffered saline; 25 mM PBS, pH 7.3, 37 °C; read-out: PBS pH 7.3 t1/2 (converted). As to the method:
All metabolite mixtures were analyzed and quantified by means of analytical RP18-HPLC (UV detection).
The solution was incubated at 37 °C in a thermomixer. […] for each extraction and stored at −30 °C. When testing, samples were warmed up to room temperature, and 25 or 20 μL of the liquid was taken and injected into the analytical RP-18-HPLC instrument. Further aliquots were taken for monitoring the kinetic hydrolysis.
5.88 g of citric acid and 3.58 g of NaCl were dissolved in 82 mL of hydrochloric acid (0.1 mol/L). Then, sodium hydroxide was added to adjust the pH to 2.0.

Data set [6] is described as follows: Hydrolysis in CEM/0 cell extracts. The format is in vitro ADME. As to conditions: human, 37 °C, read-out: CEM/0 cell extracts t1/2 (converted). The protocol:
Next, TetraPPPPro-nucleotides 4–9 were incubated in human CD4^+ T-lymphocyte CEM/0 cell extracts to study their stability and identify the hydrolysis products.
CEM cells were grown in RPMI-1640-based cell culture medium to a final density of ∼3 × 10^6 cells/mL. Cells were centrifuged for 10 min at 1250 rpm at 4 °C and washed twice with cold PBS, and the pellet was resuspended at 10^8 cells/mL and sonicated (Hielscher Ultrasound Techn., 100% amplitude, 3·times for 10 s) to destroy cell integrity. Next, the resulting cell suspension was centrifuged at 10,000 rpm to remove cell debris. Finally, the supernatant was divided into aliquots and frozen at −80 °C.
6.0 mM hydrolysis solutions of compounds 4–9 were prepared from 21 μL of 50 mM DMSO stock solutions and 154 μL of DMSO. Two different samples, including 10 μL of water and 10 μL of 6.0 mM hydrolysis solution, were prepared in 2 mL Eppendorf vials. Next, 50 μL of human CEM cell extracts or 50 μL of human citrate plasma were added to the mixture, the reaction was started, and the mixture was incubated at 37 °C for different time periods. The reactions were stopped by the addition of 150 μL of MeOH. The resulting suspension was kept on ice for 5 min, followed by defrosting and centrifugation at 14,000 rpm (Heraeus, Biofuge Pico) for 22 min. The supernatants (80 or 60 μL) were directly injected into HPLC. The calculation of t1/2 was performed analogously to that for the chemical hydrolysis studies.

For a further data set, the system named is pig liver esterase (PLE). Nature of the data set: Enzymatic hydrolysis with pig liver esterase (PLE). The format is in vitro ADME. As to conditions: pig liver esterase in phosphate buffer, PLE in phosphate buffer pH 7.3, 37 °C, read-out: PLE t1/2 (converted). As to the method: To confirm the enzymatic hydrolysis process, TetraPPPPro-nucleotides 4–9 bearing different kinds of lipophilic groups attached to the δ-phosph(on)ate group were incubated with PLE in phosphate buffer.
Then, 833 μL of 50 mM phosphate buffer (pH 7.3) and 125 μL of DMSO were added to the 6.0 mM hydrolysis solutions. The reaction was started by addition of 62.5 μL of PLE in phosphate buffer (100 units/mL), and the mixture was incubated at 800 rpm at 37 °C in a thermomixer. (1). At different times, aliquots (75 μL) were taken and stopped by the addition of […] of MeOH. The mixture was stored in liquid nitrogen. When testing, samples were warmed up to room temperature, and 60 μL of the liquid was directly injected into HPLC analysis. (2). 40 μL for each extraction was stored in liquid nitrogen. When testing, samples were warmed up to room temperature, and 30 μL of the liquid was taken and injected into the analytical RP-18-HPLC instrument. The calculation of t1/2 was performed analogously to that for the chemical hydrolysis studies.

For data set [7] the following is noted: cited from earlier work.
The mark [8] stands for this setting: wild-type CEM/0 cells, mean ± SD, n = 2–3.

Broadly, the CC50 is the concentration giving 50% cytotoxicity. As for `CCCCCCCCCCCCCCCCCCOP(=O)(OCCCCCCCCCCCCCCCCCC)OP(=O)(O)OP(=O)(O)OP(=O)(O)OC[C@@H]1C=C[C@H](n2cc(C)c(=O)[nH]c2=O)O1` [4c, δ-(Alkyl-C18; alkyl-C18)-d4T4P], the EC50 in the data set on HIV-1 (HE) was found to be 1990 ± 900 nM; in the data set with HIV-2 (ROD) [1] (setting [8]), 2090 ± 580 nM; in the data set on HIV-2 (ROD) [2], 6180 ± 1000 nM. Moreover, the “selectivity index (SI)” value in the data set on HIV-2 (ROD) [1] was 24; with HIV-2 (ROD) [2], 13. For the same molecule, the CC50 was 50 µM in data set [3] and 84.1 µM in [4].

With `CCCCCCCCCCCCOP(=O)(OCCCCCCCCCCCC)OP(=O)(O)OP(=O)(O)OP(=O)(O)OC[C@@H]1C=C[C@H](n2cc(C)c(=O)[nH]c2=O)O1` [4b, δ-(Alkyl-C12; alkyl-C12)-d4T4P], the half-life at 1.9 mM in [5] is 8.96 days. Also, the EC50 in the data set with HIV-1 (HE) was found to be 170 ± 100 nM; in the data set with HIV-2 (ROD) [1] (setting [8]), 110 ± 50 nM; with HIV-2 (ROD) [2], 29 ± 37 nM. Further, the “selectivity index (SI)” value in the data set with HIV-2 (ROD) [1] came out at 405; with HIV-2 (ROD) [2], 2927. Also, in the data set with HIV-2 (ROD) [2] (HIV-2, CEM/TK– cells), the “improvement of antiviral activity as compared to the parent d4T” value is listed as over 1700 fold. Also, the figures for the CC50 in data set [3] and in [4] were 44.6 µM and 84.9 µM, respectively.

Regarding `CCCCCCCCCCCCCCCCCCP(=O)(OCc1ccc(OC(=O)CCCC)cc1)OP(=O)(O)OP(=O)(O)OP(=O)(O)OC[C@@H]1C=C[C@H](n2cc(C)c(=O)[nH]c2=O)O1` (stereo partly drawn) [compound 7, δ-(AB-C4)-δ-C-(alkyl-C18)-d4T4P], the half-life at 1.9 mM in data set [5] is over 25 days. Further, the half-life at 0.86 mM in data set [6] was over 480 min. The half-life at 0.45 mM in the data set with pig liver esterase (PLE) was 30 min. Further, the “increase in antiviral potency as compared to d4T” value with HIV-1 (HE) (HIV-1, CEM/0 cells) is given as 36 fold; in the data set on HIV-2 (ROD) [1] (HIV-2, CEM/0 cells), 107 fold. Besides, the EC50 in the data set on HIV-1 (HE) is 9.2 ± 8.2 nM; in the data set with HIV-2 (ROD) [1] (setting [8]) it was 9.1 ± 7.7 nM; with HIV-2 (ROD) [2], 6.5 ± 5.7 nM. For the same molecule, the “selectivity index (SI)” value in the data set on HIV-2 (ROD) [1] was 4330; in the data set with HIV-2 (ROD) [2], 5700 and 5677. Moreover, the CC50 amounted to 39.4 µM in [3] and 36.9 µM in data set [4].

For `CCCCCCCCCCCCCCCCOC(=O)Oc1ccc(COP(=O)(OCc2ccc(OC(=O)CCCC)cc2)OP(=O)(O)OP(=O)(O)OP(=O)(O)OC[C@@H]2C=C[C@H](n3cc(C)c(=O)[nH]c3=O)O2)cc1` (stereo partly drawn) [compound 9, δ-(AB-C4; ACB-C16)-d4T4P], the half-life at 1.9 mM in data set [5] is 1.04 days. Also, in data set [6], the half-life at 0.86 mM is 155 min. In addition, the half-life at 0.45 mM in the data set on pig liver esterase (PLE) was 61.8 min. Besides, the values for the EC50 with HIV-1 (HE), in the data set with HIV-2 (ROD) [1] (setting [8]) and with HIV-2 (ROD) [2] were 170 ± 50 nM, 210 ± 110 nM and 9710 ± 4780 nM, respectively. For the same molecule, the “selectivity index (SI)” value is 365 with HIV-2 (ROD) [1] and 5 in the data set with HIV-2 (ROD) [2]. Moreover, the CC50 in data set [3] worked out at 76.8 µM; in [4], 50 µM.

Consider β-(AB-C4)-β-C-(C18)-d4TDP [33b], for which the “PBS pH 7.3 t1/2” value in data set [7] (buffer) was over 1000 h.

As for `CCCCCCCCCCCCCCCCCCOP(=O)(OCC(CC)CCCC)OP(=O)(O)OP(=O)(O)OP(=O)(O)OC[C@@H]1C=C[C@H](n2cc(C)c(=O)[nH]c2=O)O1` (stereo partly drawn) [4e, δ-(Alkyl-C8; alkyl-C18)-d4T4P], the half-life at 1.9 mM in data set [5] was 13.5 days. The EC50 was determined as 440 ± 170 nM in the data set with HIV-1 (HE), 320 ± 90 nM in the data set on HIV-2 (ROD) [1] (setting [8]) and 430 ± 210 nM in the data set on HIV-2 (ROD) [2]. Further, the “selectivity index (SI)” value in the data set on HIV-2 (ROD) [1] worked out at 139; in the data set on HIV-2 (ROD) [2], 114. Further, the CC50 turned out to be 44.7 µM in data set [3] and 48.9 µM in data set [4].

As for β-(AB-C4; C18)-d4TDP [33a], the “PBS pH 7.3 t1/2” value in [7] (buffer) is 406 h.

Consider `CCCCCCCCCCCCCCCCCCP(=O)(OCC(CC)CCCC)OP(=O)(O)OP(=O)(O)OP(=O)(O)OC[C@@H]1C=C[C@H](n2cc(C)c(=O)[nH]c2=O)O1` (stereo partly drawn) [5b, δ-(Alkyl-C8)-δ-C-(alkyl-C18)-d4T4P], for which the half-life at 1.9 mM in [5] was over 41.7 days. Moreover, the EC50 in the data set on HIV-1 (HE) amounted to 1440 ± 700 nM; with HIV-2 (ROD) [1] (setting [8]) it was 1300 ± 640 nM; in the data set with HIV-2 (ROD) [2], 160 ± 130 nM. Moreover, the “selectivity index (SI)” value is reported as over 77 with HIV-2 (ROD) [1] and 312 in the data set on HIV-2 (ROD) [2]. For the same molecule, the CC50 in [3] was over 100 µM; in data set [4], 50 µM.

With `CCCCCCCCCCCCCCCCCCOP(=O)(OCc1ccc(OC(=O)CCCC)cc1)OP(=O)(O)OP(=O)(O)OC[C@@H]1C=C[C@H](n2cc(C)c(=O)[nH]c2=O)O1` (stereo partly drawn) [2a, γ-(AB-C4; C18)-d4TTP], in data set [7] (PBS), the “PBS pH 7.3 t1/2” value is 237 h.

For the molecule β-(alkyl-C4)-β-C-(alkyl-C18)-d4TDP, the “PBS pH 7.3 t1/2” value in data set [7] (buffer) is recorded as over 3000 h.

Turning to `Cc1cn([C@H]2C=C[C@@H](CO)O2)c(=O)[nH]c1=O` [d4T, 3′-deoxy-2′,3′-didehydrothymidine, reference compound], the EC50 is 330 ± 130 nM with HIV-1 (HE), 970 ± 500 nM in the data set on HIV-2 (ROD) [1] and over 50000 nM in the data set on HIV-2 (ROD) [2]. Also, the CC50 in [3] and in data set [4] was over 50 µM in each case.
